According to patent US12364722B2, “Multifunctional lactobacillus capable of relieving PFOA toxic effects and application thereof” (priority 2019, dated 2025):

Test system: mice with constipation
Test: Loperamide constipation model: fecal water content and first black stool defecation time
Assay type: in vivo, BALB/c mice
Settings: loperamide 10 mg/kgBW constipation, vs model group
From the text: 40 SPF male BALB/c mice (20-25 g) were randomly divided into 5 groups: a blank control group, a constipation model control group, a Lactobacillus fermentum CCFM1051 intervention group, a Lactobacillus plantarum control group and a phenolphthalein treatment group with 10 mice in each group. The freeze-dried Lactobacillus fermentum CCFM1051 powder was resuspended in skim milk powder to prepare a bacterial suspension with a concentration of 4.0×10^9 CFU/mL. […] The fecal water content was calculated by using the following formula: Fecal water content (%)=(wet weight of feces−dry weight of feces)/wet weight of feces×100. On the morning of the 17th day, the mice in the blank control group were gavaged with normal saline, the mice in the other groups were gavaged with loperamide, after the gavage for 1 h, all the mice were gavaged with 0.25 mL of an activated carbon arabic gum aqueous solution, each mouse was separately placed in a clean stainless steel cage covered with absorbent paper, time (min) from start of the gavage with the activated carbon to defecation of first black stool was recorded as first black stool defecation time to evaluate an effect of the Lactobacillus fermentum CCFM1051 on constipation of the mice, and during the period, the mice ate and drank freely.

Q: `O=C1OC(c2ccc(O)cc2)(c2ccc(O)cc2)c2ccccc21` [phenolphthalein] was tested. Which “first black stool defecation time” value (activated carbon gavage) did it give?
A: Its value is “significantly shortened”.

Q: What about the fecal water content of the same molecule?
A: Its fecal water content is “extremely significantly increased”.
